The conditions of series [1]: cited from earlier work.
For series [2] the following is noted: no concentration stated.

Read-outs that look alike come from different tables or passages of the source.

Consider `COc1cc(Cc2cnc(N)nc2N)cc(OC)c1OC` [Trimethoprim], for which the solubility in series [1] (95% Ethanol) was 0.81 g/100 mL; in series [1] (Absolute Ethanol), 0.35 g/100 mL; in series [1] (Acetone), 0.35 g/100 mL; in series [1] (Benzene) it was 0.002 g/100 mL; in series [1] (Benzyl Alcohol), 7.29 g/100 mL; in series [1] (Carbon Tetra-Chloride), 0.002 g/100 mL. Besides, the solubility is 1.82 g/100 mL in series [1] (Choroform); 0.00 g/100 mL in series [1] (Diethyl Ether); 13.86 g/100 mL in series [1] (Dimethyl Acetamide); 1.21 g/100 mL in series [1] (Methanol); 0.02 g/100 mL in series [1] (Petroleum Ether); 2.57 g/100 mL in series [1] (Propylene Glycol). Besides, the solubility in series [1] (Water) is reported as 0.04 g/100 mL. Besides, the “solubility in ethanol (qualitative)” value in series [2] was “only slightly soluble”. Also, the “solubility in propylene glycol (qualitative)” value in series [2] was “soluble”. Also, the “solubility in water (qualitative)” value in series [2] is listed as “almost completely insoluble”.

The values above are taken from US10335518B2, “Catheter locking formulation and method to prepare same” (priority 2013, dated 2019).
